Assay results as given in PubChem BioAssay AID2060899 (Molecular Pharmacology Branch, DTP, NCI, 2025).

Test system: 565726-208-R1-J5-PDC complex spheroids, growth inhibition
Experiment: Anticancer human tumor 565726-208-R1-J5-PDC patient-derived pancreatic adenocarcinoma cell line growth inhibition [RAS]
Conditions: for IC50: curve of first compound; for viability, T/C: stronger effect = lower value
Method in brief: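 Agents were tested in combination matrices in half-log decrements from a top concentration at or near clinical Cmax (10 microM if undetermined). Targets were multi-cell spheroids of tumour lines plus HUVEC and MSC stromal cells.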

[1] = second compound 0.00316 µM, first compound 0.00316 µM
[2] = second compound 0.00316 µM, first compound 0.01 µM
[3] = second compound 0.00316 µM, first compound 0.0316 µM
[4] = second compound 0.00316 µM, first compound 0.1 µM
[5] = second compound 0.01 µM, first compound 0.00316 µM
[6] = second compound 0.01 µM, first compound 0.01 µM
[7] = second compound 0.01 µM, first compound 0.0316 µM
[8] = second compound 0.01 µM, first compound 0.1 µM
[9] = second compound 0.0316 µM, first compound 0.00316 µM
[10] = second compound 0.0316 µM, first compound 0.01 µM
[11] = second compound 0.0316 µM, first compound 0.0316 µM
[12] = second compound 0.0316 µM, first compound 0.1 µM
[13] = second compound 0.1 µM, first compound 0.00316 µM
[14] = second compound 0.1 µM, first compound 0.01 µM
[15] = second compound 0.1 µM, first compound 0.0316 µM
[16] = second compound 0.1 µM, first compound 0.1 µM
[17] = second compound 0.316 µM, first compound 0.00316 µM
[18] = second compound 0.316 µM, first compound 0.01 µM
[19] = second compound 0.316 µM, first compound 0.0316 µM
[20] = second compound 0.316 µM, first compound 0.1 µM
[21] = second compound 1 µM, first compound 0.00316 µM
[22] = second compound 1 µM, first compound 0.01 µM
[23] = second compound 1 µM, first compound 0.0316 µM
[24] = second compound 1 µM, first compound 0.1 µM
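Note: spheroids exposed to compounds for seven days before readout.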
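Throughout, for viability, T/C: 100% = DMSO vehicle control viability.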

SMILES: C=CC(=O)Nc1cc(Nc2nccc(-c3cn(C)c4ccccc34)n2)c(OC)cc1N(C)CCN(C)C + C=CC(=O)N1CCN(c2nc(OCC3CCCN3C)nc3c(F)c(-c4nc(N)cc(C)c4C(F)(F)F)c(Cl)cc23)C(C)C1
- IC50 (second compound 0.00316 µM): > 1000 nM
- IC50 (second compound 0.01 µM): > 1000 nM
- IC50 (second compound 0.0316 µM): > 1000 nM
- IC50 (second compound 0.1 µM): > 1000 nM
- IC50 (second compound 0.316 µM): > 1000 nM
- IC50 (second compound 1 µM): > 1000 nM
- viability, T/C [1]: 105%
- viability, T/C [2]: 171%
- viability, T/C [3]: 121%
- viability, T/C [4]: 90.5%
- viability, T/C (second compound 0.00316 µM, first compound 0.316 µM): 94.2%
- viability, T/C (second compound 0.00316 µM, first compound 1 µM): 121%
- viability, T/C [5]: 137%
- viability, T/C [6]: 150%
- viability, T/C [7]: 106%
- viability, T/C [8]: 94.1%
- viability, T/C (second compound 0.01 µM, first compound 0.316 µM): 80.9%
- viability, T/C (second compound 0.01 µM, first compound 1 µM): 128%
- viability, T/C [9]: 168%
- viability, T/C [10]: 157%
- viability, T/C [11]: 88.9%
- viability, T/C [12]: 105%
- viability, T/C (second compound 0.0316 µM, first compound 0.316 µM): 87.6%
- viability, T/C (second compound 0.0316 µM, first compound 1 µM): 114%
- viability, T/C [13]: 135%
- viability, T/C [14]: 162%
- viability, T/C [15]: 124%
- viability, T/C [16]: 87.1%
- viability, T/C (second compound 0.1 µM, first compound 0.316 µM): 82%
- viability, T/C (second compound 0.1 µM, first compound 1 µM): 108%
- viability, T/C [17]: 161%
- viability, T/C [18]: 152%
- viability, T/C [19]: 99.8%
- viability, T/C [20]: 106%
- viability, T/C (second compound 0.316 µM, first compound 0.316 µM): 74.8%
- viability, T/C (second compound 0.316 µM, first compound 1 µM): 141%
- viability, T/C [21]: 145%
- viability, T/C [22]: 159%
- viability, T/C [23]: 101%
- viability, T/C [24]: 115%
- viability, T/C (second compound 1 µM, first compound 0.316 µM): 87.3%
- viability, T/C (second compound 1 µM, first compound 1 µM): 109%

SMILES: CC(C)n1nc(-c2ccc3oc(N)nc3c2)c2c(N)ncnc21 + C=CC(=O)N1CCN(c2nc(OCC3CCCN3C)nc3c(F)c(-c4nc(N)cc(C)c4C(F)(F)F)c(Cl)cc23)C(C)C1
- IC50 (second compound 0.00316 µM): 100 nM
- IC50 (second compound 0.01 µM): 25.2 nM
- IC50 (second compound 0.0316 µM): 44.9 nM
- IC50 (second compound 0.1 µM): 59.1 nM
- IC50 (second compound 0.316 µM): 100 nM
- IC50 (second compound 1 µM): 80.9 nM
- viability, T/C (second compound 0.00316 µM, first compound 0.000316 µM): 93%
- viability, T/C (second compound 0.00316 µM, first compound 0.001 µM): 138%
- viability, T/C [1]: 70.2%
- viability, T/C [2]: 62.3%
- viability, T/C [3]: 57.1%
- viability, T/C [4]: 42%
- viability, T/C (second compound 0.01 µM, first compound 0.000316 µM): 93.5%
- viability, T/C (second compound 0.01 µM, first compound 0.001 µM): 132%
- viability, T/C [5]: 96.7%
- viability, T/C [6]: 68.2%
- viability, T/C [7]: 48.2%
- viability, T/C [8]: 39.5%
- viability, T/C (second compound 0.0316 µM, first compound 0.000316 µM): 99.8%
- viability, T/C (second compound 0.0316 µM, first compound 0.001 µM): 148%
- viability, T/C [9]: 81.7%
- viability, T/C [10]: 78.3%
- viability, T/C [11]: 55.5%
- viability, T/C [12]: 41.1%
- viability, T/C (second compound 0.1 µM, first compound 0.000316 µM): 107%
- viability, T/C (second compound 0.1 µM, first compound 0.001 µM): 121%
- viability, T/C [13]: 86.5%
- viability, T/C [14]: 70.8%
- viability, T/C [15]: 65.7%
- viability, T/C [16]: 40.3%
- viability, T/C (second compound 0.316 µM, first compound 0.000316 µM): 87.1%
- viability, T/C (second compound 0.316 µM, first compound 0.001 µM): 126%
- viability, T/C [17]: 70.7%
- viability, T/C [18]: 68.7%
- viability, T/C [19]: 49.7%
- viability, T/C [20]: 46%
- viability, T/C (second compound 1 µM, first compound 0.000316 µM): 79.9%
- viability, T/C (second compound 1 µM, first compound 0.001 µM): 96.3%
- viability, T/C [21]: 97.7%
- viability, T/C [22]: 65.6%
- viability, T/C [23]: 65%
- viability, T/C [24]: 45.2%
